US20250230438A1, “NEURAL REPAIR THROUGH INHIBITION OF REG3A SIGNALING” (UNIVERSITY OF SOUTH CAROLINA, priority 2023, published 2025)
Entries after “also recorded” stand apart in the source; their conditions may differ.

B1: recREG3A: recombinant human REG3A (recREG3A) (protein)
chain: EDFQKEVPSPRTSCPMGYKAYRSHCYALVMTPKSWFQADLVCQKRPSGHLVSILSGGEASFVSSLVNGRVDNYQDIWIGLHDPTMGQQPNGGGWEWSNSDVLNYLNWDGDPSSTVNRGHCGSLTASSGFLKWGDYYCDGTLPFVCKFKQ

How the values were obtained:
[1] = system: dorsal root ganglia (DRG) neurons; assay: Axon growth and branching in dissociated adult mouse DRG cultures; format: cell-based; details: for effect on recREG3A-induced decrease in axon growth / effect on recREG3A-induced increase in axon branching: co-treatment with recREG3A
Excerpt: Previously, it was shown that Reg3A mRNA expression increases after nerve injury and the mRNA is transported into regenerating peripheral nerve axons and spinal cord axon. The spinal cord model used a peripheral nerve graft to support regenerating of ascending spinal cord axons after transection. To determine if REG3A protein might affect axon growth, whether the dorsal root ganglia (DRG) neurons respond to recombinant human REG3A (recREG3A) was investigated.
shRNA depletion of Reg3A mRNA was used to determine if the endogenous REG3A protein reduces axon growth.
(§1) Specifically, it was observed that KHSRP protein increases in regenerating sciatic nerve axons, which promotes decay of regeneration-associated mRNAs including Gap43 and Snap25 mRNAs. Thus, herein it was investigated whether REG3A effects might converge on Khsrp mRNA.

KHSRP = assay: Axonal KHSRP protein levels in DRG cultures; format: cell-based, mouse; details: for effect on recREG3A-dependent increase in axonal KHSRP: co-treatment with recREG3A
Excerpt: as §1

eIF2α^PS51 = eIF2α^PS51 immunofluorescence in growth cones of DRG cultures; format: cell-based; details: acute treatment of adult mouse DRG cultures
Excerpt: Previously, it was observed that axonal Khsrp mRNA translation is increased by activation of the PERK and subsequent PERK-dependent serine 51 phosphorylation of the translation initiation factor eIF2a. […] PERK inhibition similar reduced the REG3A-dependent translation of axonal GFP^MYR5′/3′khsrp in FRAP assays (FIG. 9C).

growth cone calcium = assay: Axonal/growth cone calcium by GCaMP fluorescence in DRG spot cultures; format: cell-based, mouse; details: DRG spot cultures with AAV9-GCaMP
Excerpt: The findings above provide circumstantial but not direct evidence for elevated axoplasmic calcium as a key regulator of REG3A's effects on axons. As such, herein it was investigated whether REG3A increases calcium levels in DRG neurons using genetically encoded GCaMP fluorescent calcium indicator in DRG spot cultures. For this, DRG spot cultures were co-transduced with AAV9-GCaMP. […] Axonal calcium levels are known to increase immediately after axotomy but based on translational regulation of different axonal mRNAs that respond to elevated vs. normal axonal calcium levels, the axotomy induced increase in calcium returns to pre-injury levels within 16 hours after axotomy to allow translation of axonal mRNAs encoding regeneration-associated proteins. Thus, intra-axonal calcium levels in regenerating axons were monitored beginning at 16 hours after axotomy. The regenerating axons show an oscillatory GCaMP signal with broad peaks approximately every 50-70 min over a 4-hour period in AAV9-shCntl-transduced DRG spot cultures (FIG. 8E).

| Molecule | effect on recREG3A-induced decrease in axon growth [1] | effect on recREG3A-induced increase in axon branching [1] | effect on recREG3A-dependent increase in axonal KHSRP (KHSRP) | axon branching ([1]; bath application of recREG3A, adult mouse sensory neurons) | axon growth ([1]; bath application of recREG3A, adult mouse sensory neurons, 24-hour exposure) | KHSRP levels in distal axons (KHSRP; recREG3A application) | eIF2α^PS51 levels in growth cones (eIF2α^PS51) | growth cone / intra-axonal calcium levels (GCaMP) (growth cone calcium) | growth cone / intra-axonal calcium levels (GCaMP) (growth cone calcium; listed as RecREG3A) |
| --- | --- | --- | --- | --- | --- | --- | --- | --- | --- |
| CC(=O)OCOC(=O)CN(CC(=O)OCOC(C)=O)c1ccccc1OCCOc1ccccc1N(CC(=O)OCOC(C)=O)CC(=O)OCOC(C)=O [BAPTA-AM] | blocked | blocked | attenuated | – | – | – | – | – | – |
| O=C(O)CN(CC(=O)O)c1ccccc1OCCOc1ccccc1N(CC(=O)O)CC(=O)O [BAPTA] | – | – | also attenuated | – | – | – | – | – | – |
| C[C@@H]1C[C@@H]([C@H](O)CC2CC(=O)NC(=O)C2)C(=O)[C@@H](C)C1 [cycloheximide] | prevented | prevented | did not occur | – | – | – | – | – | – |
| B1 | – | – | – | increased axon branching | reduced axon growth; also recorded: decreases axon extension | increased KHSRP levels in distal axons | increased eIF2α^PS51 levels in growth cones | significantly increased growth cone calcium | increases |
